The values that follow come from publication PMC4819196, “A novel fibroblast growth factor receptor 1 inhibitor protects against cartilage degradation in a murine model of osteoarthritis” (Scientific Reports, 2016).

The target in the assay is fibroblast growth factor receptor 1 (FGFR1) (Homo sapiens, UniProt P11362). As to the kind of experiment: cell-free kinase inhibition, caliper mobility shift assay, ATP at Km ([…]). Type of assay: biochemical.
Chain of fibroblast growth factor receptor 1 (FGFR1) (P11362 22-822): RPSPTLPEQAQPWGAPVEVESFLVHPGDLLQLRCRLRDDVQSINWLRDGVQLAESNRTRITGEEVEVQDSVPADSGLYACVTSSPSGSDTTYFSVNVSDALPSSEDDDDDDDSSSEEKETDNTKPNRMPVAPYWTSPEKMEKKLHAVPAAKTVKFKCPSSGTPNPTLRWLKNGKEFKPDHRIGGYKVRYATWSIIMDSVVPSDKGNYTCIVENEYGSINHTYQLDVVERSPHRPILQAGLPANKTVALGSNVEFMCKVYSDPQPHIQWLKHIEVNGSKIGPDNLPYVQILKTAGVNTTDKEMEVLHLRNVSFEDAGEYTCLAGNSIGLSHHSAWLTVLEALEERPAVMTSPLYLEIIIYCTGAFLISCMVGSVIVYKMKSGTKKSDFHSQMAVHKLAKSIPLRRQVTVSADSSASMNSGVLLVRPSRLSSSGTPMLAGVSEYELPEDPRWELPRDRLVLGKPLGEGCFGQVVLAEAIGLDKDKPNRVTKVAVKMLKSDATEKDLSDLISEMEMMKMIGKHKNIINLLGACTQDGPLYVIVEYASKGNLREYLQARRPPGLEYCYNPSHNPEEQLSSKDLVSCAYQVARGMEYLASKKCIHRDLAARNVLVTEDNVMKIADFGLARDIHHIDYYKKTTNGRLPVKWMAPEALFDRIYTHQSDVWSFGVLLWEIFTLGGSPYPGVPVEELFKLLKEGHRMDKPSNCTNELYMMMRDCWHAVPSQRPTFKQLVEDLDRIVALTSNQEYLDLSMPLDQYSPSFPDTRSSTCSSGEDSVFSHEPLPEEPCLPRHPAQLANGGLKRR

On to `CCOc1ccc(/C=C2\CC[C@@]3(C2=O)[C@@H](c2ccc(OCC)cc2)CN(C)[C@]32C(=O)c3cccc4cccc2c34)cc1` [G141], for which the IC50 was determined as 2.7 ± 0.54 µM.
